The conditions of data set [1]: cited from earlier work.
Data set [2] addresses T1, β5 active site of the human 20S proteasome (Homo sapiens, UniProt P28074).
T1 construct: purchased Boston Biochem
Description: Proteasome kinetic assay (β5 chymotrypsin-like active site). As to conditions: substrate Suc-LLVY-AMC 100 µM. The format is biochemical. Here is the method: Human 20S proteasome, 700 KDa, was purchased from Boston Biochem (50 µg, 2 µM (1.4 mg/mL)) in 50 mM HEPES buffer (pH 7.6, 100 mM NaCl, 1 mM DTT). Assay buffer was prepared as follows: 20 mM HEPES buffer pH 7.8, 0.5 mM EDTA, 0.037% SDS. Proteasome specific substrate Suc-LLVY-AMC was purchased from Boston Biochem and used as a fluorogenic substrate; λex = 380 nm, λem = 442 nm. 18 µL of 2 µM proteasome solution was diluted with 425 µL H2O to make a 0.06 µM stock enzyme solution for kinetic assays. In a 96-well plate suitable for fluorometric assays was added 86 µL assay buffer, 2 µL inhibitor, 2 µL enzyme substrate, and 10 µL enzyme stock solution ([…] enzyme concentration in well). Fluorescence at 442 nM was monitored for 10 min. […] IC50 values were obtained from non-linear fitting of the data to a competitive inhibition model using GraphPad Prism 7.0 software. The proteasome β5 chymotrypsin-like active site activity assay was performed as previously described.

A further data set concerns the target proteasome. As to conditions: substrate Suc-LLVY-AMC, cited from earlier work; for Ki: read-out: previously reported Ki.
Data set [3] concerns the target calpains and various lysosomal cathepsins. Also noted: method as in PMID 8087844. As to conditions: cited from earlier work.
In the next data set the target is T2, human caspase-3 (Homo sapiens, UniProt P42574).
T2 construct: gift, Prof; Guy Salvesen's laboratory
T2 sequence (P42574 29-175 limits assumed): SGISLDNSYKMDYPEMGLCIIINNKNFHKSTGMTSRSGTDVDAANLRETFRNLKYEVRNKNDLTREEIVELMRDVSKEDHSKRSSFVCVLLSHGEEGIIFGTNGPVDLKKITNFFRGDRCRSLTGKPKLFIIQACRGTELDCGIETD
T2 sequence (P42574 176-277 limits assumed): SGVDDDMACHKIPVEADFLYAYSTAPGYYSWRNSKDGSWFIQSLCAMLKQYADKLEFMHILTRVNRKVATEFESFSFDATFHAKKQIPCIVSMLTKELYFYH
Description: Caspase-3 kinetic assay. The class given is biochemical. As to conditions: substrate Ac-DEVD-AMC 0.1 mM, 37 °C. Here is the method:
(§1) Caspase-3 and caspase-6 were generous gifts from Prof. Guy Salvesen’s laboratory and then used at Ohio State University. Caspase activities were measured in 100 mM HEPES, 10% sucrose, 0.1% CHAPS, 10 mM DTT, pH 7.5 at 37 °C. To 5,000 µL of this buffer, 100 µL of freshly prepared 1 M DTT and 4,900 µL DI H2O were added resulting in the caspase assay buffer. Studies were performed at 37 °C.
Caspase-3 specific substrate Ac-DEVD-AMC was purchased from Cayman Chemical Company and used as fluorogenic substrate; λex = 353 nm, λem = 442 nm. 2 µL of 33 µM caspase-3 solution was diluted with 4998 µL caspase assay buffer to make a 13.2 nM enzyme stock solution. In a 96-well plate suitable for fluorometric assays, 80 µL assay buffer, 5 µL inhibitor, 5 µL enzyme substrate (0.1 mM), and 10 µL enzyme stock solution were added. Fluorescence at 442 nM was monitored for 10 min. The enzyme activity was measured in triplicate at varying concentrations of inhibitor (0, 25, 50, 100 µM in DMSO) and substrate (0.1 mM in DMSO) by converting the slope of the plot of fluorescence intensity at 442 nm vs time for the time points between 4 and 8 min using Beer-Lambert’s law. IC50 values were obtained from non-linear fitting of the data to a competitive inhibition model using GraphPad Prism 7.0 software.

The target of a further data set is T3, human caspase-6 (Homo sapiens, UniProt P55212).
T3 construct: gift, Prof; Guy Salvesen's laboratory
T3 sequence (P55212 24-179 limits assumed): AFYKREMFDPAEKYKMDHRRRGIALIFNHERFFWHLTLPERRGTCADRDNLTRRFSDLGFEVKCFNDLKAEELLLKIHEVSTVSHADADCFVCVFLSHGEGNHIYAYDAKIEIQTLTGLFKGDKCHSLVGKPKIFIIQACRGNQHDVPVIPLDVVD
T3 sequence (P55212 194-293 limits assumed): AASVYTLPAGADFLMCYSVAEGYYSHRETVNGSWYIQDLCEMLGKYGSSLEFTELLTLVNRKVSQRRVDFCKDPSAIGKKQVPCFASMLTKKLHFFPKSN
Description: Caspase-6 kinetic assay. The class given is biochemical. As to conditions: for IC50: substrate Ac-VEID-AFC 0.1 mM, 37 °C. On the procedure:
as §1
Caspase-6 specific substrate Ac-VEID-AFC was purchased from ChemCruz and used as a fluorogenic substrate; λex = 400 nm, λem = 505 nm. To 45 µL of assay buffer, 5 µL of the 19.7 µM enzyme was added. This resulting enzyme solution was further diluted 1:5 with assay buffer resulting in a 0.32 µM solution. In a 96-well plate suitable for fluorometric assays was added 80 µL assay buffer, 5 µL inhibitor, 5 µL enzyme substrate (0.1 mM), and 10 µL enzyme stock solution (32 nM enzyme concentration in well). The enzyme activity was measured in triplicate at varying concentrations of inhibitor (0, 25, 50, 100 µM in DMSO) and substrate (0.1 mM in DMSO) by converting the slope of the plot of fluorescence intensity at 442 nm vs time for the time points between 4 and 8 min using Lambert-Beer’s law. IC50 values were obtained from non-linear fitting of the data to a competitive inhibition model using GraphPad Prism 7.0 software.

The next data set concerns the target S. mansoni legumain (Schistosoma mansoni, UniProt P09841). Description: Legumain kinetic assay (S. mansoni). The format is biochemical. To be noted: for IC50: substrate Cbz-AAN-AMC 50 µM, pH 5.5. Here is the method: (§2) Schistosoma mansoni and Ixodes ricinus legumain zymogens were expressed in the yeast, Pichia pastoris, as described[36]^,[42]. Legumain kinetic assay details: zymogens were activated for 3 h (Ir) or overnight (Sm) at room temperature in 0.1 M Na-Ac pH 4.0; 5 mM DTT. Activities were measured in 0.1 M Na-Ac pH 5.5; 2.5 mM DTT, 0.1% PEG 6000 buffer. The substrate used was Cbz-AAN-AMC with 50 µM final concentration in the assay. Inhibitors were prepared in DMSO (1% DMSO in activity assay). Measurements were taken with an incubation period of 10 min at room temperature, and the enzyme activity was measured in triplicate. Asparaginyl Endopeptidase (AE) activity assay was performed as previously described.

In the next data set the target is I. ricinus legumain (Ixodes ricinus, UniProt Q6PRC7). Description: Legumain kinetic assay (I. ricinus). The format is biochemical. On the procedure: as §2
Chain of I. ricinus legumain (Q6PRC7 37-328 limits assumed): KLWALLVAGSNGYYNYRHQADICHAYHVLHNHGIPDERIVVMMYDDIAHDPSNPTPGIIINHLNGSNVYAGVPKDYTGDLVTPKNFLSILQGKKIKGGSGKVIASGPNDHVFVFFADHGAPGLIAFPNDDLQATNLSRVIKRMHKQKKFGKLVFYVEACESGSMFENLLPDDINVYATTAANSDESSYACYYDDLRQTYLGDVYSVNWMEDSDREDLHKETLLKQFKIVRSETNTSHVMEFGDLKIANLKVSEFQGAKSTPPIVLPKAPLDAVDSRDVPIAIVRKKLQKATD
Setting [4] is: at the highest concentration tested (100 µM).

Results on twelve molecules are retold here after PMC7470110, “Design, synthesis, and in vitro evaluation of aza-peptide aldehydes and ketones as novel and selective protease inhibitors” (Journal of Enzyme Inhibition and Medicinal Chemistry, 2020).

Read-outs that look alike come from different tables or passages of the source. Peptide text beside a SMILES is read from it. * marks the point of attachment. Cbz = O=C(OCc1ccccc1)*

Chain of S. mansoni legumain (P09841 32-291): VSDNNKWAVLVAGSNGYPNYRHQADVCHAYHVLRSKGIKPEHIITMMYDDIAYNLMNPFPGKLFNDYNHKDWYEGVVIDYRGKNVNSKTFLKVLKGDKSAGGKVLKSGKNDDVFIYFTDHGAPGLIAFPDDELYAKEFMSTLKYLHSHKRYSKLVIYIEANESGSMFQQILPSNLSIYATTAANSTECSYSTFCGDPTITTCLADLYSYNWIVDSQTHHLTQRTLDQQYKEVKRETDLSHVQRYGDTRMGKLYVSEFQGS

With `CC(C)C[C@H](NC(=O)[C@H](Cc1ccccc1)NC(=O)c1cnccn1)B(O)O` [bortezomib], the “peripheral neuropathy, share of patients” value in data set [1] (newly diagnosed multiple myeloma patients) is listed as “up to 64%”.
Regarding `CC(=O)C(=O)N(CC(C)C)NC(=O)[C@H](CC(C)C)NC(=O)[C@H](CC(C)C)NC(=O)OCc1ccccc1` [Compound 4, Benzyl ((S)-1-(((S)-1–(2-isobutyl-2–(2-oxopropanoyl)hydrazinyl)-4-methyl-1-oxopentan-2-yl)amino)-4-methyl-1-oxopentan-2-yl)carbamate], in data set [2], half-maximal inhibition (IC50) was put at 14.6 ± 2.39 µM.
`CCC[C@@H](C=O)NC(=O)[C@H](CC(C)C)NC(=O)[C@H](CC(C)C)NC(=O)OCc1ccccc1` [MG115, Cbz-Leu-Leu-Nle-CHO]: at proteasome, the Ki is 0.021 µM.
On to `CC(C)C[C@@H](C=O)NC(=O)[C@H](CC(C)C)NC(=O)[C@H](CC(C)C)NC(=O)OCc1ccccc1` [MG132, Cbz-Leu-Leu-Leu-CHO] (Cbz-Leu-Leu-Leu-aldehyde), for which, on proteasome, the “previously reported Ki” value was “few nanomolar” and the Ki is 0.002 to 0.004 µM. Also, the Ki in data set [3] is 0.005 to 0.012 µM.
As for `CC(=O)C(=O)N(CC(=O)O)NC(=O)[C@@H](NC(=O)[C@H](CCC(=O)O)NC(=O)[C@H](CC(=O)O)NC(=O)OCc1ccccc1)C(C)C` [Compound 6, (5S,8S,11S)-8–(2-Carboxyethyl)-5-(carboxymethyl)-11-isopropyl-3,6,9,12-tetraoxo-14–(2-oxopropanoyl)-1-phenyl-2-oxa-4,7,10,13,14-pentaazahexadecan-16-oic acid], the IC50 against human caspase-3 is 7.74 ± 1.88 µM; on human caspase-6, 51.9 ± 10.6 µM.
On to `CC(C)C[C@H](NC(=O)OCc1ccccc1)C(=O)N[C@@H](CC(C)C)C(=O)NN(CC(C)C)C(=O)C(=O)Cc1ccccc1` [Compound 5, Benzyl ((S)-1-(((S)-1–(2-isobutyl-2–(2-oxo-3-phenylpropanoyl)hydrazinyl)-4-methyl-1-oxopentan-2-yl)amino)-4-methyl-1-oxopentan-2-yl)carbamate], for which the 50% inhibitory concentration (IC50) in data set [2] came out at 10.1 ± 4.49 µM.
As to `CC(C)C[C@H](NC(=O)[C@H](CCc1ccccc1)NC(=O)CN1CCOCC1)C(=O)N[C@@H](Cc1ccccc1)C(=O)N[C@@H](CC(C)C)C(=O)[C@@]1(C)CO1` [Carfilzomib, carfilzomib], the “adverse cardiovascular effects, share of patients” value in data set [1] (treated patients) is reported as “up to 30%”.
`CC(C)[C@H](NC(=O)[C@H](CCC(=O)O)NC(=O)[C@H](CC(=O)O)NC(=O)OCc1ccccc1)C(=O)NN(CC(=O)O)C(=O)C(=O)Cc1ccccc1` [Compound 7, (5S,8S,11S)-8–(2-Carboxyethyl)-5-(carboxymethyl)-11-isopropyl-3,6,9,12-tetraoxo-14–(2-oxo-3-phenylpropanoyl)-1-phenyl-2-oxa-4,7,10,13,14-pentaazahexadecan-16-oic acid]: the IC50 on human caspase-3 was 13.4 ± 4.61 µM; against human caspase-6 it was 64.2 ± 45.4 µM.
Regarding `CC[C@@H](C)[C@H](NC(=O)OCc1ccccc1)C(=O)N[C@@H](CCC(=O)O)C(=O)N[C@H](C(=O)NN(CC(=O)O)C(=O)C(C)=O)[C@H](C)O` [Compound 8, (5S,8S,11S)-5-((R)-s-butyl)-8–(2-carboxyethyl)-11-((S)-1-hydroxyethyl)-3,6,9,12-tetraoxo-14–(2-oxopropanoyl)-1-phenyl-2-oxa-4,7,10,13,14-pentaazahexadecan-16-oic acid], the IC50 at human caspase-3 is 122 ± 83.3 µM; against human caspase-6, 9.08 ± 3.02 µM. Moreover, the “inhibits caspase-6 more effectively than caspase-3” value at human caspase-6 (ratio of IC50 caspase-3 / caspase-6) is reported as 13 times.
With `C[C@H](NC(=O)OCc1ccccc1)C(=O)N[C@@H](C)C(=O)NN(CC(N)=O)C(=O)C(=O)Cc1ccccc1` [Compound 11, Benzyl ((S)-1-(((S)-1–(2–(2-amino-2-oxoethyl)-2-(2-oxo-3-phenylpropanoyl)hydrazinyl)-1-oxopropan-2-yl)amino)-1-oxopropan-2-yl)carbamate], the figures for the IC50 against S. mansoni legumain and against I. ricinus legumain were 22.2 ± 4.21 µM and 17.8 ± 11.2 µM, respectively.
Molecule `CC(C)C[C@H](NC(=O)OCc1ccccc1)C(=O)N[C@@H](CC(C)C)C(=O)NN(CC(C)C)C(=O)C=O` [Compound 3, Benzyl ((S)-1-(((S)-1–(2-isobutyl-2–(2-oxoacetyl)hydrazinyl)-4-methyl-1-oxopentan-2-yl)amino)-4-methyl-1-oxopentan-2-yl)carbamate] came in with an IC50 in data set [2] of 9.02 ± 1.82 µM.
For the molecule `CC(=O)C(=O)N(CC(N)=O)NC(=O)[C@H](C)NC(=O)[C@H](C)NC(=O)OCc1ccccc1` [Compound 10, Benzyl ((S)-1-(((S)-1–(2–(2-amino-2-oxoethyl)-2-(2-oxopropanoyl)hydrazinyl)-1-oxopropan-2-yl)amino)-1-oxopropan-2-yl)carbamate], on S. mansoni legumain (setting [4]), the “inhibition of S. mansoni legumain” value was “did not show inhibition”. For the same molecule, the half-maximal inhibitory concentration (IC50) against S. mansoni legumain was greater than 100 µM; on I. ricinus legumain (substrate Cbz-AAN-AMC 50 µM, pH 5.5, read-out: IC50 I. ricinus) it was greater than 100 µM. Besides, the “inhibition of I. ricinus legumain” value on I. ricinus legumain (setting [4]) is given as “did not show inhibition”.

For orientation: IC50 means the midpoint of a concentration-inhibition curve. A word on the Ki: it is the equilibrium dissociation constant of an inhibitor or competing ligand from its target.
